Source: US20260185979A1, “APPARATUSES AND METHODS FOR ANALYZING LIVE CELLS” (AGILENT TECHNOLOGIES, INC., priority 2022, published 2026)
“Also recorded” adds a separate entry of the source.

Key:
MCF-7-red target cells = assay: ECM invasion and cytotoxicity assay: NK-92 cells over matrigel layered on MCF-7-red cells (impedance and live cell imaging, xCELLigence RTCA eSight); assay type: cell-based, human; conditions: for killing of target cells by NK-92 (drop in impedance): MMP inhibitor 2 μM and 10 μM in matrigel and media
Experimental: An exemplary protocol is described as follows. Briefly, varying volumes of matrigel (50-110 microliters (μL)/well; 6 milligrams (mg)/millilter (mL)) representing increasing distance for invasion is layered over MCF-7 (available from American Type Culture Collection (ATCC)) human breast adenocarcinoma cells stably expressing nuclear-localized red fluorescent protein (MCF-7). NK-92 cells (available from Creative Bioarray, ATCC) are added over the solidified matrigel layer at E:T of 3:1. eLive Green (available from Agilent Technologies, shown in green) is added at 1 μL/mL. A broad spectrum MMP inhibitor (such as GM6001, available from Selleck Chemicals) is used to evaluate the role of matrix metalloproteinases (MMPs).
The ability of NK-92 cells to invade the matrigel and kill the MCF-7-red target cells was evaluated by concurrent impedance and imaging readouts on an XCELLIGENCE RTCA ESIGHT® imaging and sensing system (available from Agilent Tech., Inc.). Background impedance signal was measured with 50 μL of EMEM media in the wells of E-plate VIEW microplate (available from Agilent Technologies, Cat#0030060101030). MCF-7-red target cells (30,000 in 100 μL) were added to each well. The plate was placed at room temperature for thiry minutes to facilitate an even distribution of cells at the bottom. […] Impedance readings were collected every fifteen minutes, and photos were taken every sixty minutes. Images from four fields of view were acquired in each well in brightfield, red, and green fluorescence channels. […] Percent cytolysis was calculated from normalized cell impedance readings at seventy-two hours using the formula: [(1−(treated/untreated)*100]. […]
The ability of NK-92 cells to invade the matrigel and kill the MCF7-red target cells was evaluated by concurrent impedance and imaging readouts on an XCELLIGENCE RTCA ESIGHT® imaging and sensing system as outlined in FIG. 6A. Background impedance signal was measured with 50 μL of EMEM media in the wells of E-plate VIEW microplate. […]

NK-92 invasion = conditions: transmigration assays; cited from earlier work
A431 cells [1] = assay: EpCAM-CAR-T cytotoxicity assay, A431 cells cultured in DMEM media (no matrigel); assay type: cell-based, human; conditions: Pemigatinib 5 μM and 10 μM, E:T 3.5, DMEM media
Experimental: […] […] Tumor cell growth and CAR-T cytotoxicity were determined from real-time impedance and live cell imaging data collected on the XCELLIGENCE RTCA ESIGHT® imaging and sensing system. Pemigatinib (1 μM, 5 μM and 10 μM), an inhibitor of FGFR isoforms 1-3, sold under the brand name Pemazyre was used to evaluate the role of FGFR signaling. Percent cytolysis was calculated from normalized cell impedance and imaging (red fluorescence) data using the formula [(1−(treated/control)*100].
[…] The background impedance signal was measured with 50 μL of c-DMEM media in the wells of E-plate VIEW microplate (Agilent Technologies, Cat#0030060101030). […] Impedance was read every 15 minutes and images were taken every 60 minutes. Images from four fields of view were acquired for each well in brightfield and red fluorescence channel. […]
(§1) The software generates a real-time plot of impedance data with time (X-axis) and Cell Index (CI, Y-axis). […] Normalized Cell Index (NCI(t)) was calculated by dividing the CI at time t (CI(t)) with CI at normalization time point (CI(tnormalization)). […] Percent cytolysis was calculated from NCI (impedance) using the formula [(1−(CAR-T treated/Pemigatinib treated)*100]. Percent cytolysis was calculated from red object counts/well (imaging) using the formula [(1−(CAR-T treated/Pemigatinib treated)*100].

A431 cells [2] = assay: A431 cell proliferation, normalized cell index over time; assay type: cell-based, human
Experimental: (§2) Briefly, matrigel (6 mg/ml) was layered (50 μL/ell) over A431-red target tumor cells expressing nuclear-localized mKate2 (red fluorescent protein). After 2 h, epithelial cell adhesion molecule (EpCAM)-CAR-T cells were seeded over the matrigel layer. Tumor cell growth and CAR-T cytotoxicity were determined from real-time impedance and live cell imaging data collected on the XCELLIGENCE RTCA ESIGHT® imaging and sensing system. Pemigatinib (1 μM, 5 μM and 10 μM), an inhibitor of FGFR isoforms 1-3, sold under the brand name Pemazyre was used to evaluate the role of FGFR signaling. Percent cytolysis was calculated from normalized cell impedance and imaging (red fluorescence) data using the formula [(1−(treated/control)*100].
(§3) The ability of EpCAM-CAR-T cells to invade the matrigel and kill A431-red target cells was evaluated using impedance and imaging readouts on an XCELLIGENCE RTCA ESIGHT® imaging and sensing system. The background impedance signal was measured with 50 μL of c-DMEM media in the wells of E-plate VIEW microplate (Agilent Technologies, Cat#0030060101030). Cell suspension of A 431-red cells was prepared in c-DMEM at desired cell numbers to be aliquot at 100 μL/well. […] Impedance was read every 15 minutes and images were taken every 60 minutes. Images from four fields of view were acquired for each well in brightfield and red fluorescence channel. […]

A431-red target cells = assay: ECM invasion and cytotoxicity assay: EpCAM-CAR-T cells over matrigel layered on A431-red cells (impedance and imaging); assay type: cell-based, human; conditions: for percent cytolysis (CAR-T killing): matrigel
Experimental: as §2
as §3, with “μL/well. After the addition of tumor cells, the E-plate was allowed to rest at room temperature for 30 min to facilitate an even distribution at the bottom.” for “μL/well.”
as §1

SMILES	target cell killing by GFP-NK92 cells (percent cytolysis from normalized impedance and red fluorescence imaging) (MCF-7-red target cells; 2 μM and 10 μM)	killing of target cells by NK-92 (drop in impedance) (MCF-7-red target cells)	killing of target cells by NK-92 (drop in impedance) (MCF-7-red target cells; listed as Ilomostat)	NK-92 invasion in matrigel in the presence of MMP inhibitor (NK-92 invasion)	A431 cytolysis by EpCAM-CAR-T cells in the presence of Pemigatinib (A431 cells [1])	proliferation of A431 cells (normalized cell index) (A431 cells [2]; in the presence of matrigel, 1, 5 and 10 μM tested)	proliferation of A431 cells (normalized cell index) (A431 cells [2]; native DMEM media, no matrigel)	percent cytolysis (CAR-T killing) (A431-red target cells; 5 μM Pemigatinib with EpCAM-CAR-T)	percent cytolysis (CAR-T killing) (A431-red target cells; 10 μM Pemigatinib with EpCAM-CAR-T)	elimination of A431 cells in invasion assays (A431-red target cells; E:T=20:1 and 1 μM Pemigatinib)
CNC(=O)[C@H](Cc1c[nH]c2ccccc12)NC(=O)[C@@H](CC(=O)NO)CC(C)C [GM6001, Ilomostat]	delayed and reduced target cell killing	delayed but not abrogated	delayed the killing of target cells	reduced						
CCN1C(=O)N(c2c(F)c(OC)cc(OC)c2F)Cc2cnc3[nH]c(CN4CCOCC4)cc3c21 [Pemigatinib]					accelerated	reduces the proliferation of A431 cells in the presence of matrigel in a concentration-dependent manner; also recorded: reduced the proliferation of A431 cells with increasing concentrations tested	slows the proliferation of A431 cells in native DMEM media in a concentration dependent manner	~20%	−40%	Complete elimination
